Key:
[1] = Cytotoxicity against human HEK293 cells assessed as reduction in cell viability measured after 72 hrs; assay type: toxicity, cell-based
MV4-11 [2] = experiment: Induction of apoptosis in human MV4-11 cells assessed as necrotic cells at 0.5 uM incubated for 24 hrs by AnnexinV-FITC/PI staining based flow cytometry (reference value: 0%); assay type: functional
MV4-11 [3] = experiment: Induction of cell cycle arrest in human MV4-11 cells assessed as accumulation of cells at G0/G1 phase at 0.4 uM incubated fo 36 hrs by propidium iodide staining based flow cytometry (reference value: 64%); assay type: functional
MV4-11 [4] = experiment: Induction of cell cycle arrest in human MV4-11 cells assessed as accumulation of cells at S phase at 0.2 uM incubated fo 36 hrs by propidium iodide staining based flow cytometry (reference value: 26.5%); assay type: functional
[5] = biological target: Serine/threonine-protein kinase SIK3 (Homo sapiens) (UniProt Q9Y2K2); experiment: Inhibition of wild type partial length human QSK (90 to 395 residues) expressed in mammalian expression system at 1 uM by KINOMEscan analysis
Sequence of Serine/threonine-protein kinase SIK3 (Homo sapiens) (Q9Y2K2 whole entry, looked up, the tested form may be a part): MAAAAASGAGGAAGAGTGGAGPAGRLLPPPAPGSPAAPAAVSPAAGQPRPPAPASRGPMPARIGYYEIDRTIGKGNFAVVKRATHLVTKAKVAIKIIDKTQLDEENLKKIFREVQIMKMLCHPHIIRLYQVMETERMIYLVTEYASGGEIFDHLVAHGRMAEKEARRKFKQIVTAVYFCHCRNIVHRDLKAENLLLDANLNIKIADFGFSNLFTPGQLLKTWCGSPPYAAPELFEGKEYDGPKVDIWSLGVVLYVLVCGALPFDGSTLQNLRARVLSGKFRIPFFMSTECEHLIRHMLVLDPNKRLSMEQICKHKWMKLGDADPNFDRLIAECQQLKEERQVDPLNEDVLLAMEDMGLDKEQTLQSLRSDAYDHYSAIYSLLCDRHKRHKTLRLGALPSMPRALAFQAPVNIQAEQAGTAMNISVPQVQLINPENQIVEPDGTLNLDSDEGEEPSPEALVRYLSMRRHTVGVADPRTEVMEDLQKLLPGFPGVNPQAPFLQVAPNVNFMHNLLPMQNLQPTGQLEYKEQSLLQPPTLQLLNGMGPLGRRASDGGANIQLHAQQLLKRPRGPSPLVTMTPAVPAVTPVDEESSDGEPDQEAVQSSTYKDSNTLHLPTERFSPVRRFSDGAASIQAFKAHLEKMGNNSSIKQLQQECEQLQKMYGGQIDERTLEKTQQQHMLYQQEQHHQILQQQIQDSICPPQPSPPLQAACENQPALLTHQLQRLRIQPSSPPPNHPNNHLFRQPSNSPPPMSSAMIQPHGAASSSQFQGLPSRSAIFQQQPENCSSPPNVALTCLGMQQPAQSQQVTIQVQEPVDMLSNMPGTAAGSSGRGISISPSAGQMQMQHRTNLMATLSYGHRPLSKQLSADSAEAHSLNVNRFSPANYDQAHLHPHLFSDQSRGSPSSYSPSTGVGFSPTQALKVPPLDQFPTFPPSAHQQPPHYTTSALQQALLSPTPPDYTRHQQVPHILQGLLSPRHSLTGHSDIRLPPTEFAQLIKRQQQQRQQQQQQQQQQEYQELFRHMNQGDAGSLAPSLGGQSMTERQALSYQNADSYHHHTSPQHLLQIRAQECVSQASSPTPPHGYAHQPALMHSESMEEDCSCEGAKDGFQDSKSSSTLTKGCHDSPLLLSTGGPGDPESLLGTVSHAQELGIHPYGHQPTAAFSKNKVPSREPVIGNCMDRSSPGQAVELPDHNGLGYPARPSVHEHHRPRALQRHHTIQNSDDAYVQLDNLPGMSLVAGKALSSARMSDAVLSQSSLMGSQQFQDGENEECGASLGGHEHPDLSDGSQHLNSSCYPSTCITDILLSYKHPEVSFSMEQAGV

BT-549 = experiment: Antiproliferative activity against human BT-549 cells assessed as reduction in cell viability measured after 72 hrs; assay type: functional, cell-based; settings: BT-549, 72 h
[6] = Metabolic stability of the compound in mouse liver microsomes at 10 uM measured for 60 mins in presence of NADPH by LC-MS/MS analysis; assay type: ADME, Microsome; settings: 1 h
MV4-11 [7] = experiment: Induction of apoptosis in human MV4-11 cells assessed as viable cells at 0.5 uM incubated for 24 hrs by AnnexinV-FITC/PI staining based flow cytometry (reference value: 93.4%); assay type: functional; settings: read-out: Activity
MV4-11 [8] = experiment: Induction of apoptosis in human MV4-11 cells assessed as necrotic cells at 2 uM incubated for 24 hrs by AnnexinV-FITC/PI staining based flow cytometry (reference value: 0%); assay type: functional
MV4-11 [9] = experiment: Antiproliferative activity against human MV4-11 cells assessed as reduction in cell viability measured after 72 hrs; assay type: functional, cell-based; settings: MV4-11, 72 h
MV4-11 [10] = experiment: Induction of cell cycle arrest in human MV4-11 cells assessed as accumulation of cells at G2/M phase at 0.1 uM incubated fo 36 hrs by propidium iodide staining based flow cytometry (reference value: 9.5%); assay type: functional
MV4-11 [11] = experiment: Induction of apoptosis in human MV4-11 cells assessed as viable cells at 2 uM incubated for 24 hrs by AnnexinV-FITC/PI staining based flow cytometry (reference value: 93.4%); assay type: functional; settings: read-out: Activity
MV4-11 [12] = experiment: Induction of apoptosis in human MV4-11 cells assessed as early apoptotic cells at 4 uM incubated for 24 hrs by AnnexinV-FITC/PI staining based flow cytometry (reference value: 1.42%); assay type: functional
MV4-11 [13] = experiment: Induction of apoptosis in human MV4-11 cells assessed as necrotic cells at 4 uM incubated for 24 hrs by AnnexinV-FITC/PI staining based flow cytometry (reference value: 0%); assay type: functional
MV4-11 [14] = experiment: Induction of cell cycle arrest in human MV4-11 cells assessed as accumulation of cells at G0/G1 phase at 0.2 uM incubated fo 36 hrs by propidium iodide staining based flow cytometry (reference value: 64%); assay type: functional
[15] = biological target: CDK2/Cyclin A2 (Homo sapiens) (UniProt P24941+P20248); experiment: Inhibition of CDK2/CyclinA2 (unknown origin) at 100 nM by ADP-Glo assay relative to control; assay type: protein-complex assay
A549 = experiment: Antiproliferative activity against human A549 cells assessed as reduction in cell viability measured after 72 hrs; assay type: functional, cell-based; settings: A549, 72 h
[16] = biological target: CDK9/cyclin T1 (Homo sapiens) (UniProt O60563+P50750); experiment: Inhibition of CDK9/CyclinT1 (unknown origin) at 100 nM by ADP-Glo assay relative to control; assay type: protein-complex assay
MV4-11 [17] = experiment: Induction of apoptosis in human MV4-11 cells assessed as late apoptotic cells at 2 uM incubated for 24 hrs by AnnexinV-FITC/PI staining based flow cytometry (reference value: 5.21%); assay type: functional
MV4-11 [18] = experiment: Induction of cell cycle arrest in human MV4-11 cells assessed as accumulation of cells at G0/G1 phase at 0.1 uM incubated fo 36 hrs by propidium iodide staining based flow cytometry (reference value: 64%); assay type: functional
MV4-11 [19] = experiment: Antitumor activity against human MV4-11 cells xenografted in BALB/c mouse assessed as inhibition of tumor growth at 15 mg/kg, iv qd and measured every 2 days; assay type: functional; settings: MV4-11, 48 h, read-out: TGI
[20] = biological target: Calcium-dependent protein kinase 1 (Plasmodium falciparum) (UniProt P62344); experiment: Inhibition of wild type full length Plasmodium falciparum PFCDPK1 (1 to 524 residues) expressed in mammalian expression system at 1 uM by KINOMEscan analysis
Sequence of Calcium-dependent protein kinase 1 (Plasmodium falciparum) (P62344 2-524 limits assumed): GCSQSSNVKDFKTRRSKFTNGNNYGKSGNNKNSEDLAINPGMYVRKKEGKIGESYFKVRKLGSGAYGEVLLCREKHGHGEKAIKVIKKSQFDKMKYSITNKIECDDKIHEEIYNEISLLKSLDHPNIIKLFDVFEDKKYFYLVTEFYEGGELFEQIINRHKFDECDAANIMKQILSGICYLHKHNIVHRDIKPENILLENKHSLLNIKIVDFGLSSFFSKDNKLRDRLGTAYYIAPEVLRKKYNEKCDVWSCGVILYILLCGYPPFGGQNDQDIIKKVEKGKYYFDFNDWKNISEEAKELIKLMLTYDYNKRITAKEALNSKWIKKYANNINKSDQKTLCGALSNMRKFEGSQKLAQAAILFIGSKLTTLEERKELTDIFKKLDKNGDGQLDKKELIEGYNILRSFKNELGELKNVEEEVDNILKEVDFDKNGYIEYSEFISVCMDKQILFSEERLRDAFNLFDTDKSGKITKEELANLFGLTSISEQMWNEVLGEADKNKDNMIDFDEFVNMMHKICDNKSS

[21] = biological target: Dual specificity mitogen-activated protein kinase kinase 5 (Homo sapiens) (UniProt Q13163); experiment: Inhibition of wild type partial length human MEK5 (98 to 448 residues) expressed in mammalian expression system at 1 uM by KINOMEscan analysis
Sequence of Dual specificity mitogen-activated protein kinase kinase 5 (Homo sapiens) (Q13163 whole entry, the tested form may be a part): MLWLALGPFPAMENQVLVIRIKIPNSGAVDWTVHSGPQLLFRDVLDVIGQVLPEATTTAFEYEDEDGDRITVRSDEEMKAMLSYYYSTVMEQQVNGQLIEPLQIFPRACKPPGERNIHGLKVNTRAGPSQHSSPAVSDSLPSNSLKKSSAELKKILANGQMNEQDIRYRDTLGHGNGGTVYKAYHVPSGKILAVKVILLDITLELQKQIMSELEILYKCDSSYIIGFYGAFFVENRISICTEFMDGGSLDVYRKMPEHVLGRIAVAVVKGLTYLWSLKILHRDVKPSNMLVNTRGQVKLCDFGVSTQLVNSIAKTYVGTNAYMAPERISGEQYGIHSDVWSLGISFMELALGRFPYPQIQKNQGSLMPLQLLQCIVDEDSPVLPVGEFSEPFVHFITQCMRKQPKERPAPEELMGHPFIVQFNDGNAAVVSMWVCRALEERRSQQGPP

MV4-11 [22] = experiment: Induction of cell cycle arrest in human MV4-11 cells assessed as accumulation of cells at S phase at 0.4 uM incubated fo 36 hrs by propidium iodide staining based flow cytometry (reference value: 26.5%); assay type: functional
[23] = biological target: NUAK family SNF1-like kinase 2 (Homo sapiens) (UniProt Q9H093); experiment: Inhibition of wild type partial length human SNARK (22 to 333 residues) expressed in mammalian expression system at 1 uM by KINOMEscan analysis
Sequence of NUAK family SNF1-like kinase 2 (Homo sapiens) (Q9H093 whole entry, the tested form may be a part): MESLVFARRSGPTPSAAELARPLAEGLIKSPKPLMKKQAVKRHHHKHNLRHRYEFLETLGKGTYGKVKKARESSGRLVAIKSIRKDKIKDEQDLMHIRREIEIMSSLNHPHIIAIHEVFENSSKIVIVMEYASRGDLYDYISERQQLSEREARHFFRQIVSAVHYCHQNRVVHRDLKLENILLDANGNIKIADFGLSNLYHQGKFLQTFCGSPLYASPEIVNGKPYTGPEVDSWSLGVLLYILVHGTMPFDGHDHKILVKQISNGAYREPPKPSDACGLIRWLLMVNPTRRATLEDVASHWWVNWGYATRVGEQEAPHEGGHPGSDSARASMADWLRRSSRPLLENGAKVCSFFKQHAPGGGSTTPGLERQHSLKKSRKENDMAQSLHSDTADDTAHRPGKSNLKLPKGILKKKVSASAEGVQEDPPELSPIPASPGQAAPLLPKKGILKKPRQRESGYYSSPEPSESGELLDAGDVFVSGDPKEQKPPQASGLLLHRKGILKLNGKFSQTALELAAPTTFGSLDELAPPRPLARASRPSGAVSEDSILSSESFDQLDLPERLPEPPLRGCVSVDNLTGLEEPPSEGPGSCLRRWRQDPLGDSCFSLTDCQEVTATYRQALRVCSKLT

MOLM-13 = experiment: Antiproliferative activity against human MOLM-13 cells assessed as reduction in cell viability measured after 72 hrs; assay type: functional, cell-based; settings: MOLM-13, 72 h
[24] = biological target: Cyclin-dependent kinase 4/cyclin D1 (Homo sapiens, UniProt P11802); experiment: Inhibition of CDK4/CyclinD1 (unknown origin) by ADP-Glo assay; assay type: protein-complex assay
Sequence of Cyclin-dependent kinase 4/cyclin D1 (P11802 whole entry, the tested form may be a part): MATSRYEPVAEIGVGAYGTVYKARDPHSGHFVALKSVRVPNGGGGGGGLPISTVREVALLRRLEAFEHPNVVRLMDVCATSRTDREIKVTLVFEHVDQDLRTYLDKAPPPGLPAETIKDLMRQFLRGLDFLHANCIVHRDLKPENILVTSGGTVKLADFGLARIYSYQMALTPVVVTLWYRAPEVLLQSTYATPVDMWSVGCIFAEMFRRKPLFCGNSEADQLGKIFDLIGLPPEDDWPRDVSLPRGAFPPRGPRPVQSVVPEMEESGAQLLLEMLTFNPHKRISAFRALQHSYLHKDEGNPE
Sequence of Cyclin-dependent kinase 4/cyclin D1 (P24385 whole entry, further chain, the tested form may be a part): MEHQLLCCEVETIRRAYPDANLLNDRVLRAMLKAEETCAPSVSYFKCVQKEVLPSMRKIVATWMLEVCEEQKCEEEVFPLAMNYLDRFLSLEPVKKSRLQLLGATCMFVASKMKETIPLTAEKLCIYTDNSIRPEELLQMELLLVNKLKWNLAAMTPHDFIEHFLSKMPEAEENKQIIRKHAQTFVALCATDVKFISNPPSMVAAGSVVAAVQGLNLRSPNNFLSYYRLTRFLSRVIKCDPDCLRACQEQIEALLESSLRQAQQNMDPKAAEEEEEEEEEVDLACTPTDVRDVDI

[25] = biological target: Myosin-IIIb (Homo sapiens) (UniProt Q8WXR4); experiment: Inhibition of wild type partial length human MYO3B (1 to 357 residues) expressed in bacterial expression system at 1 uM by KINOMEscan analysis
HCT-116 = experiment: Antiproliferative activity against human HCT-116 cells assessed as reduction in cell viability measured after 72 hrs; assay type: functional, cell-based; settings: HCT-116, 72 h
MV4-11 [26] = experiment: Induction of apoptosis in human MV4-11 cells assessed as viable cells at 0.1 uM incubated for 24 hrs by AnnexinV-FITC/PI staining based flow cytometry (reference value: 93.4%); assay type: functional; settings: read-out: Activity
MV4-11 [27] = experiment: Induction of apoptosis in human MV4-11 cells assessed as late apoptotic cells at 0.5 uM incubated for 24 hrs by AnnexinV-FITC/PI staining based flow cytometry (reference value: 5.21%); assay type: functional
MV4-11 [28] = experiment: Induction of apoptosis in human MV4-11 cells assessed as late apoptotic cells at 4 uM incubated for 24 hrs by AnnexinV-FITC/PI staining based flow cytometry (reference value: 5.21%); assay type: functional
CDK2/Cyclin A2 = CDK2/Cyclin A2 (Homo sapiens, UniProt P24941); experiment: Inhibition of CDK2/CyclinA2 (unknown origin) by ADP-Glo assay; assay type: protein-complex assay
[29] = biological target: Cyclin-dependent kinase 9 (Homo sapiens) (UniProt P50750); experiment: Inhibition of CDK9 in human MV4-11 cells assessed as reduction in RNA polymerase 2 phosphorylation at Ser2 residue incubated for 12 hrs by western blot analysis; assay type: cell-based; settings: dose 0.1-4 µM
Sequence of Cyclin-dependent kinase 9 (Homo sapiens) (P50750 whole entry): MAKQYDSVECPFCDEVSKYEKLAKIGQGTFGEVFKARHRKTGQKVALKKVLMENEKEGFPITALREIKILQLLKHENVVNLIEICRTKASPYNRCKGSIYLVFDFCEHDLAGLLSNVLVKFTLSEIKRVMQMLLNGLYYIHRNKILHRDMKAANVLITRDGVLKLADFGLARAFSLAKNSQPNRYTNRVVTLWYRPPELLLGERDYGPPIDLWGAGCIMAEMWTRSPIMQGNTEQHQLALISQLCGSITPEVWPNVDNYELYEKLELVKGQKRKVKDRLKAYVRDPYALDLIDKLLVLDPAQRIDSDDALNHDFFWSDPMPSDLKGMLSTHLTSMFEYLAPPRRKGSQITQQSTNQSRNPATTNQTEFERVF

## COc1cc(O)c2c(=O)cc(-c3ccc(N4CCN(C)CC4)cc3)oc2c1C1=CCN(C)CC1
[1]
  IC50 at 72 h: 10700 nM
MV4-11 [2]
  Activity: 0%
MV4-11 [3]
  Activity: 81.2%
MV4-11 [4]
  Activity: 19%
[5]
  inhibition: 3.3%
BT-549
  IC50: 210 nM
[6]
  Stability: Stable
MV4-11 [7]
  viability at 0.5 µM: 87.8%
MV4-11 [8]
  Activity: 0.11%
MV4-11 [9]
  IC50: 60 nM
MV4-11 [10]
  Activity: 8.5%
MV4-11 [11]
  viability at 2 µM: 3.12%
MV4-11 [12]
  Activity: 70.3%
MV4-11 [13]
  Activity: 0.42%
MV4-11 [14]
  Activity: 73.9%
[15]
  inhibition: 16.7%
A549
  IC50: 700 nM
[16]
  inhibition: 98.9%
MV4-11 [17]
  Activity: 29.8%
MV4-11 [18]
  Activity: 70.5%
MV4-11 [19]
  inhibition in vivo at 15 mg/kg: 65%
[20]
  inhibition: 2.2%
[21]
  inhibition: 0%
MV4-11 [22]
  Activity: 12.8%
[23]
  inhibition: 6.2%
MOLM-13
  IC50: 160 nM
[24]
  IC50: 53 nM
[25]
  inhibition: 0%
HCT-116
  IC50: 20 nM
MV4-11 [26]
  viability at 0.1 µM: 91.5%
MV4-11 [27]
  Activity: 10.2%
MV4-11 [28]
  Activity: 21.3%
CDK2/Cyclin A2
  IC50: 533 nM
[29]
  inhibition: Dose-Dependent Effect

Source: ChEMBL document CHEMBL5634084, “Design and optimization of selective and potent CDK9 inhibitors with flavonoid scaffold for the treatment of acute myeloid leukemia” (Eur J Med Chem, 2023)
